# Laboratory results taken from ChEMBL document CHEMBL1201862, “PubChem BioAssay data set” (2004).
#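 Test compounds were applied to cells in 96-well plates for 48 hours at 5 doses. GI50 is the concentration that inhibits growth by half.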 Activity calls are given as the source filed them. Cut-off read from the data, not from the text of the source: active = GI50 up to about 1.1 µM and inactive = higher.
# Columns and labels:
# Assay in all cases: NCI anticancer screen, dose series, 48 h
# NCI-H23 = system: NCI-H23
# ACHN = system: ACHN
# IGROV-1 = system: IGROV-1
# OVCAR-3 = system: OVCAR-3
# SK-MEL-2 = system: SK-MEL-2
# RXF 393 = system: RXF 393
# U-251 = system: U-251
# HCT-116 = system: HCT-116
# Malme-3M = system: Malme-3M
# HOP-62 = system: HOP-62
# HCC 2998 = system: HCC 2998
# SK-OV-3 = system: SK-OV-3
# UO-31 = system: UO-31
# A498 = system: A498
# 786-0 = system: 786-0
# A549 = system: A549
# COLO 205 = system: COLO 205
# UACC-257 = system: UACC-257
# EKVX = system: EKVX
# OVCAR-8 = system: OVCAR-8
# SF-295 = system: SF-295
# UACC-62 = system: UACC-62
# SF-539 = system: SF-539
# NCI-H226 = system: NCI-H226
# LOX IMVI = system: LOX IMVI
# SN12C = system: SN12C
# DMS-273 = system: DMS-273
# HOP-18 = system: HOP-18
# CAKI-1 = system: CAKI-1
# OVCAR-4 = system: OVCAR-4
# NCI-H460 = system: NCI-H460
# HOP-92 = system: HOP-92
# M14 = system: M14
# CCRF-CEM = system: CCRF-CEM
# TK-10 = system: TK-10
# SNB-75 = system: SNB-75
# HL-60 = system: HL-60
# SK-MEL-28 = system: SK-MEL-28
# SK-MEL-5 = system: SK-MEL-5
# KM-20L2 = system: KM-20L2
# KM12 = system: KM12
# SNB-19 = system: SNB-19
# SF-268 = system: SF-268
# OVCAR-5 = system: OVCAR-5
# K562 = system: K562
# HCT-15 = system: HCT-15
# MOLT-4 = system: MOLT-4
# HT-29 = system: HT-29
# SW-620 = system: SW-620
# LXFL 529 = system: LXFL 529
# RPMI-8226 = system: RPMI-8226
# NCI-H522 = system: NCI-H522
# SNB-78 = system: SNB-78
structure (smiles),measurement,setting,value
C=C(C=O)CCCC(C)[C@@H]1CCC23CC12CCC1[C@@]2(C)CCC(OC(C)=O)C(C)(C)C2CC(OC2OC(COC(C)=O)C(O)C(O)C2O)[C@]13C (stereo partly drawn),GI50,NCI-H23,7.82 µM (inactive)
same,GI50,ACHN,4.51 µM (inactive)
same,GI50,IGROV-1,2.15 µM (inactive)
same,GI50,OVCAR-3,2.72 µM (inactive)
same,GI50,SK-MEL-2,7.4 µM (inactive)
same,GI50,RXF 393,5.6 µM (inactive)
same,GI50,U-251,2.72 µM (inactive)
same,GI50,HCT-116,0.809 µM (active)
same,GI50,Malme-3M,2 µM (inactive)
same,GI50,HOP-62,7.87 µM (inactive)
same,GI50,HCC 2998,7.53 µM (inactive)
same,GI50,SK-OV-3,6.15 µM (inactive)
same,GI50,UO-31,5.42 µM (inactive)
same,GI50,A498,6.85 µM (inactive)
same,GI50,786-0,6.87 µM (inactive)
same,GI50,A549,6.34 µM (inactive)
same,GI50,COLO 205,7.82 µM (inactive)
same,GI50,UACC-257,5.7 µM (inactive)
same,GI50,EKVX,7.33 µM (inactive)
same,GI50,OVCAR-8,4.38 µM (inactive)
same,GI50,SF-295,5.83 µM (inactive)
same,GI50,UACC-62,1.08 µM (active)
same,GI50,SF-539,5.7 µM (inactive)
same,GI50,NCI-H226,6.43 µM (inactive)
same,GI50,LOX IMVI,0.807 µM (active)
same,GI50,SN12C,1.58 µM (inactive)
same,GI50,DMS-273,5.82 µM (inactive)
same,GI50,HOP-18,9.64 µM (inactive)
same,GI50,CAKI-1,5.25 µM (inactive)
same,GI50,OVCAR-4,5.14 µM (inactive)
same,GI50,NCI-H460,7.69 µM (inactive)
same,GI50,HOP-92,6.22 µM (inactive)
same,GI50,M14,1.47 µM (inactive)
same,GI50,CCRF-CEM,1.03 µM (active)
same,GI50,TK-10,6.58 µM (inactive)
same,GI50,SNB-75,5.68 µM (inactive)
same,GI50,HL-60,0.643 µM (active)
same,GI50,SK-MEL-28,0.845 µM (active)
same,GI50,SK-MEL-5,5.58 µM (inactive)
same,GI50,KM-20L2,6.5 µM (inactive)
same,GI50,KM12,3.39 µM (inactive)
same,GI50,SNB-19,7.1 µM (inactive)
same,GI50,SF-268,5.43 µM (inactive)
same,GI50,OVCAR-5,5.98 µM (inactive)
same,GI50,K562,1.44 µM (inactive)
same,GI50,HCT-15,1.56 µM
same,GI50,MOLT-4,0.861 µM (active)
same,GI50,HT-29,5.43 µM (inactive)
same,GI50,SW-620,0.798 µM (active)
same,GI50,LXFL 529,2.66 µM (inactive)
same,GI50,RPMI-8226,0.859 µM (active)
same,GI50,NCI-H522,0.843 µM (active)
same,GI50,SNB-78,1.14 µM (inactive)
